Measured values from PubChem BioAssay AID1919005 (Molecular Pharmacology Branch, DTP, NCI, 2023).
Several values for one entry are separate records, joined by “and”; a condition that tells them apart may be missing. Identical values can stand only once.

Test system: 855422-203-R-J1-PDC complex spheroid growth
Assay: Anticancer human tumor 855422-203-R-J1-PDC patient-derived bladder carcinoma cell line growth inhibition [AhR]
Conditions: for viability, T/C: stronger effect = lower value
Procedure, shortened: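 Agents were dosed in half-log steps down from roughly clinical Cmax, or from 10 microM where Cmax was unknown, alone and with AhR antagonists. Read-out: percent test/control growth of tumor spheroids containing HUVEC and MSC stromal cells.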

[1] = curve of first compound, second compound 0.1 µM
[2] = curve of first compound, second compound 0.316 µM
[3] = curve of first compound, second compound 1 µM
[4] = curve of first compound, second compound 3.16 µM
[5] = curve of first compound, second compound 10 µM
[6] = second compound 0.1 µM, first compound 0.0316 µM
[7] = second compound 0.1 µM, first compound 0.1 µM
[8] = second compound 0.1 µM, first compound 0.316 µM
[9] = second compound 0.1 µM, first compound 1 µM
[10] = second compound 0.1 µM, first compound 3.16 µM
[11] = second compound 0.1 µM, first compound 10 µM
[12] = second compound 0.316 µM, first compound 0.0316 µM
[13] = second compound 0.316 µM, first compound 0.1 µM
[14] = second compound 0.316 µM, first compound 0.316 µM
[15] = second compound 0.316 µM, first compound 1 µM
[16] = second compound 0.316 µM, first compound 3.16 µM
[17] = second compound 0.316 µM, first compound 10 µM
[18] = second compound 1 µM, first compound 0.0316 µM
[19] = second compound 1 µM, first compound 0.1 µM
[20] = second compound 1 µM, first compound 0.316 µM
[21] = second compound 1 µM, first compound 1 µM
[22] = second compound 1 µM, first compound 3.16 µM
[23] = second compound 1 µM, first compound 10 µM
[24] = second compound 3.16 µM, first compound 0.0316 µM
[25] = second compound 3.16 µM, first compound 0.1 µM
[26] = second compound 3.16 µM, first compound 0.316 µM
[27] = second compound 3.16 µM, first compound 1 µM
[28] = second compound 3.16 µM, first compound 3.16 µM
[29] = second compound 3.16 µM, first compound 10 µM
[30] = second compound 10 µM, first compound 0.0316 µM
[31] = second compound 10 µM, first compound 0.1 µM
[32] = second compound 10 µM, first compound 0.316 µM
[33] = second compound 10 µM, first compound 1 µM
[34] = second compound 10 µM, first compound 3.16 µM
[35] = second compound 10 µM, first compound 10 µM
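Note: spheroids exposed to agents for seven days before readout.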
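Throughout, for viability, T/C: percent of DMSO vehicle control luminescence viability.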

## CC(C)c1c(-c2ccccc2)nc2c(C#N)c[nH]n2c1=O + CC(CO)NC(=O)c1cc(-c2ccc(Cl)cc2)nn(-c2cnn(C)c2)c1=O
[1]
  IC50: > 10 µM
[2]
  IC50: > 10 µM
[3]
  IC50: > 10 µM
[4]
  IC50: > 10 µM
[5]
  IC50: > 10 µM
[6]
  viability, T/C: 103%
[7]
  viability, T/C: 100%
[8]
  viability, T/C: 95.2%
[9]
  viability, T/C: 85.6%
[10]
  viability, T/C: 92.4%
[11]
  viability, T/C: 91.8%
[12]
  viability, T/C: 93.1%
[13]
  viability, T/C: 105%
[14]
  viability, T/C: 95.8%
[15]
  viability, T/C: 105%
[16]
  viability, T/C: 98.8%
[17]
  viability, T/C: 92%
[18]
  viability, T/C: 103%
[19]
  viability, T/C: 106%
[20]
  viability, T/C: 104%
[21]
  viability, T/C: 99.8%
[22]
  viability, T/C: 99.6%
[23]
  viability, T/C: 96.5%
[24]
  viability, T/C: 97.3%
[25]
  viability, T/C: 106%
[26]
  viability, T/C: 99.2%
[27]
  viability, T/C: 93.6%
[28]
  viability, T/C: 91.3%
[29]
  viability, T/C: 110%
[30]
  viability, T/C: 86.9%
[31]
  viability, T/C: 90.9%
[32]
  viability, T/C: 91.7%
[33]
  viability, T/C: 98%
[34]
  viability, T/C: 93%
[35]
  viability, T/C: 92.1%

## COc1cc(C2c3cc4c(cc3C(OC3OC5COC(C)OC5C(O)C3O)C3COC(=O)C23)OCO4)cc(OC)c1O (configuration not stated)
Compound 0.0316 µM
  viability, T/C: 96.6% and 94.9% and 94.2%
Compound 0.1 µM
  viability, T/C: 98.4% and 97.4% and 106%
Compound 0.316 µM
  viability, T/C: 61% and 81.5% and 67.7%
Compound 1 µM
  viability, T/C: 14.2% and 22% and 29.3%
Compound 3.16 µM
  viability, T/C: 9.05% and 11.6% and 17.3%
Compound 10 µM
  viability, T/C: 4.28% and 5.57% and 7.14%
Curve of compound
  IC50: 0.417 µM and 0.584 µM and 0.553 µM

## CC(C)c1c(-c2ccccc2)nc2c(C#N)c[nH]n2c1=O + Cc1ccccc1N=Nc1ccc(NC(=O)c2ccnn2C)c(C)c1
[1]
  IC50: > 10 µM
[2]
  IC50: > 10 µM
[3]
  IC50: > 10 µM
[4]
  IC50: > 10 µM
[5]
  IC50: > 10 µM
[6]
  viability, T/C: 98.4%
[7]
  viability, T/C: 105%
[8]
  viability, T/C: 94.5%
[9]
  viability, T/C: 92.9%
[10]
  viability, T/C: 89.5%
[11]
  viability, T/C: 89%
[12]
  viability, T/C: 106%
[13]
  viability, T/C: 99%
[14]
  viability, T/C: 96.9%
[15]
  viability, T/C: 104%
[16]
  viability, T/C: 91.2%
[17]
  viability, T/C: 93%
[18]
  viability, T/C: 95.8%
[19]
  viability, T/C: 103%
[20]
  viability, T/C: 96.5%
[21]
  viability, T/C: 101%
[22]
  viability, T/C: 91.4%
[23]
  viability, T/C: 90.5%
[24]
  viability, T/C: 94.4%
[25]
  viability, T/C: 93.7%
[26]
  viability, T/C: 89.7%
[27]
  viability, T/C: 88.7%
[28]
  viability, T/C: 89.5%
[29]
  viability, T/C: 82.1%
[30]
  viability, T/C: 81.8%
[31]
  viability, T/C: 83.6%
[32]
  viability, T/C: 76.9%
[33]
  viability, T/C: 86%
[34]
  viability, T/C: 76.5%
[35]
  viability, T/C: 73.6%
